The text below walks through data of ChEMBL document CHEMBL4354781, “Drug-resistance in Mycobacterium tuberculosis: where we stand” (2019).

In brackets after ≈: the same amount, converted by molar mass.

A word on the MIC: it is the least concentration at which growth counts as inhibited.

Common to all, as to format: functional
For assay [1], the system named is Mycobacterium tuberculosis. Briefly: Antitubercular activity against Mycobacterium tuberculosis H37Rv ATCC 35820.
For assay [2], the system named is Mycobacterium tuberculosis. Briefly: Antitubercular activity against Mycobacterium tuberculosis H37Rv ATCC 25618.
Assay [3] concerns Mycobacterium tuberculosis. Briefly: Antitubercular activity against Mycobacterium tuberculosis H37Rv ATCC 35838.
Assay [4] deals with Mycobacterium tuberculosis. The experiment in a line: Antitubercular activity against Mycobacterium tuberculosis Kurono ATCC 35812.
Assay [5] relates to Mycobacterium tuberculosis. Briefly: Antitubercular activity against Mycobacterium tuberculosis H37Rv ATCC 35837.
The test system of assay [6] is Mycobacterium tuberculosis. Briefly: Antitubercular activity against Mycobacterium tuberculosis H37Rv ATCC 35822.
Assay [7] deals with Mycobacterium tuberculosis. Briefly: Antitubercular activity against Mycobacterium tuberculosis XDR.
Assay [8] concerns Mycobacterium tuberculosis. The experiment in a line: Antitubercular activity against Mycobacterium tuberculosis by radiometric analysis.

Turning to `C[C@]1(COc2ccc(N3CCC(Oc4ccc(OC(F)(F)F)cc4)CC3)cc2)Cn2cc([N+](=O)[O-])nc2O1` [DELAMANID], the MIC in assay [1], in assay [2], in assay [3], in assay [4], in assay [5] and in assay [6] was 0.006 to 0.024 µg/mL (≈ 0.0112 to 0.0449 µM) throughout.
With `CC(=O)NC[C@H]1CN(c2ccc(N3CCOCC3)c(F)c2)C(=O)O1` [LINEZOLID], the MIC in assay [7] fell in the range of 0.125 to 0.5 µg/mL (≈ 0.371 to 1.48 µM).
`O=[N+]([O-])c1cn2c(n1)OC[C@@H](OCc1ccc(OC(F)(F)F)cc1)C2` [PRETOMANID]: the MIC in assay [8] fell in the range of 0.015 to 0.25 µg/mL (≈ 0.0418 to 0.696 µM).
